Test results as given in ChEMBL document CHEMBL1201862, “PubChem BioAssay data set” (2004).
The source made the active and inactive calls.

Assays:
[1] = A Cell Based Secondary Assay To Explore Cytotoxicity of Compounds that Sensitize Mycobacterium Tuberculosis to Beta-Lactam Antibiotics.; assay type: functional
[2] = test system: Escherichia coli; test: microbe, parasite or virus in culture
[3] = test system: Escherichia coli; test: microbe, parasite or virus in culture; remark: listed apart in the source
[4] = molecular target: Large T antigen (Simian virus 40, UniProt P03070); assay type: functional, Betapolyomavirus macacae;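 further: Confirmatory-stage PubChem screen for compounds that inhibit SV40 T antigen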
Sequence of Large T antigen (P03070 whole entry): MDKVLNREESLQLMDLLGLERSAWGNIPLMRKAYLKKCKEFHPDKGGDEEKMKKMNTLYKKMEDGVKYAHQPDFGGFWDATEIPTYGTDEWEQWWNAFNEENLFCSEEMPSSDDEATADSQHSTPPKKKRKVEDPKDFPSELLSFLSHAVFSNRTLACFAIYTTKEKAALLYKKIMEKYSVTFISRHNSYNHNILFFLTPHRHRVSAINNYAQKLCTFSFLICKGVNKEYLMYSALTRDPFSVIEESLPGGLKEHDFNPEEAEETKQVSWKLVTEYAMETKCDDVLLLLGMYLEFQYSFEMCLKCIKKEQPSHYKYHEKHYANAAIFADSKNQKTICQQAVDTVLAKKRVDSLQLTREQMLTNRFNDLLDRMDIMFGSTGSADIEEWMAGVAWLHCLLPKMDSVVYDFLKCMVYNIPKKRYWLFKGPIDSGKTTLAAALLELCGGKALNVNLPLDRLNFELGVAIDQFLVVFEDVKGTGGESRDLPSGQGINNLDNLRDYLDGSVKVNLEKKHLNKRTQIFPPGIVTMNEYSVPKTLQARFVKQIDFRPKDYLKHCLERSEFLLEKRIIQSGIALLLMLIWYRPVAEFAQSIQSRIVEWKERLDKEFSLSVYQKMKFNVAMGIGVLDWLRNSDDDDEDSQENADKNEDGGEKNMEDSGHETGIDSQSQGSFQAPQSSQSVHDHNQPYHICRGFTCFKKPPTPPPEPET

[5] = molecular target: Estrogen receptor beta (Homo sapiens, UniProt Q92731);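 further: recombinant ER-beta bound to coactivator SRC1 peptide in presence of estradiol agonist; inhibitors block coactivator peptide binding and lower the FRET signal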
Sequence of Estrogen receptor beta (Q92731 whole entry): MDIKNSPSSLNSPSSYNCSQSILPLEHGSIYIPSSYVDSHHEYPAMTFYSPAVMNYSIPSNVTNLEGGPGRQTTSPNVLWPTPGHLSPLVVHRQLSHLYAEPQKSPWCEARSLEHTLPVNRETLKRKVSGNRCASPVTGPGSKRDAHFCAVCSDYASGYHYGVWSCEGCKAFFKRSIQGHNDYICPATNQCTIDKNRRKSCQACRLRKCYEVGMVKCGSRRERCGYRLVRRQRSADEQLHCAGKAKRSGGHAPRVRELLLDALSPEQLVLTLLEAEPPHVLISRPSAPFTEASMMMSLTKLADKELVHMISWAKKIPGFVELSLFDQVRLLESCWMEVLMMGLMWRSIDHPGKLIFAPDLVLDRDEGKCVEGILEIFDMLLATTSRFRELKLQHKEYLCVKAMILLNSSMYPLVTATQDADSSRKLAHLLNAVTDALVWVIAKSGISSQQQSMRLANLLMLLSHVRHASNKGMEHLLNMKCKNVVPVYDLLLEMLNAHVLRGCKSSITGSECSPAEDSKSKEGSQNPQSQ

[6] = molecular target: Cytochrome P450 2C19 (Homo sapiens, UniProt P33261); test: Cytochrome panel assay with activity outcomes. Panel member name: p450-cyp2c19 Compounds with AC50 equal or less than 10 uM are considered active; assay type: functional; settings: read-out: AC50
Sequence of Cytochrome P450 2C19 (P33261 whole entry): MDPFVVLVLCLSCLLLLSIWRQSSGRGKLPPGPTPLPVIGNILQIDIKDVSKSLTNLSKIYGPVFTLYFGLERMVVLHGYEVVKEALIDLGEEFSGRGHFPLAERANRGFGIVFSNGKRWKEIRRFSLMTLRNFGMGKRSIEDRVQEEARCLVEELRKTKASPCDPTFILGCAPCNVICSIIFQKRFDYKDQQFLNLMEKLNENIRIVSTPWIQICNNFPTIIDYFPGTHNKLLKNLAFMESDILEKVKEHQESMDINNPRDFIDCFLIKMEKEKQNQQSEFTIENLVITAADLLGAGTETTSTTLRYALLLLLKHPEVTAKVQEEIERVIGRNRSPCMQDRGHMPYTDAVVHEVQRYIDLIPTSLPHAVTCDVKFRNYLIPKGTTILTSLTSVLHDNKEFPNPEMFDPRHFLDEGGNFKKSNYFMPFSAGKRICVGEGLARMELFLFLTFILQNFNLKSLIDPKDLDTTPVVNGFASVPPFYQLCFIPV

[7] = molecular target: Cytochrome P450 2C9 (Homo sapiens, UniProt P11712)
Sequence of Cytochrome P450 2C9 (P11712 whole entry): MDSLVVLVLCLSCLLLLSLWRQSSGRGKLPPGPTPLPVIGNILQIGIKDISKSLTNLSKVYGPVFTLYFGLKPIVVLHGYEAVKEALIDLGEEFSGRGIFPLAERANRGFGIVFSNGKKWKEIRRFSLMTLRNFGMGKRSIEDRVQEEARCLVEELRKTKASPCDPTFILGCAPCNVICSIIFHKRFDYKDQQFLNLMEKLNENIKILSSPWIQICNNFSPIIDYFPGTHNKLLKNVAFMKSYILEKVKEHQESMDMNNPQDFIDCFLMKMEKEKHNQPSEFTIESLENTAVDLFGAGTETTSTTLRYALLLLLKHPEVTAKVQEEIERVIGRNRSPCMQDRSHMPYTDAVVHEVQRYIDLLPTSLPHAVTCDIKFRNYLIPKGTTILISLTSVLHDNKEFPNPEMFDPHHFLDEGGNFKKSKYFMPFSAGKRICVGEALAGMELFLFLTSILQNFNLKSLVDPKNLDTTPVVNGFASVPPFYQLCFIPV

[8] = molecular target: FAD-linked sulfhydryl oxidase ALR (Homo sapiens, UniProt P55789); test: inhibitors of human ALR sulfhydryl oxidase, dose response, biochemical, H2O2 detection, luminescence, cherry-pick (AID 493248)
Sequence of FAD-linked sulfhydryl oxidase ALR (P55789 whole entry): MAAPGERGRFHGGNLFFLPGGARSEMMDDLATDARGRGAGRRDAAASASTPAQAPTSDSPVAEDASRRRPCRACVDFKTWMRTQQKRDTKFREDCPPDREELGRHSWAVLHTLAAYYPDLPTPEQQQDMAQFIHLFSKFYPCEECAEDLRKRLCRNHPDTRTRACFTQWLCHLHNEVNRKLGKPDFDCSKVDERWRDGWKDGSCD

[9] = cells; assay type: functional, cell-based
[10] = cells; assay type: functional, cell-based; remark: listed apart in the source
[11] = molecular target: T1, fMet-Leu-Phe receptor (Homo sapiens, UniProt P21462); test: FPR ligands, dose response (AID 519); assay type: functional
T1 sequence (P21462 whole entry): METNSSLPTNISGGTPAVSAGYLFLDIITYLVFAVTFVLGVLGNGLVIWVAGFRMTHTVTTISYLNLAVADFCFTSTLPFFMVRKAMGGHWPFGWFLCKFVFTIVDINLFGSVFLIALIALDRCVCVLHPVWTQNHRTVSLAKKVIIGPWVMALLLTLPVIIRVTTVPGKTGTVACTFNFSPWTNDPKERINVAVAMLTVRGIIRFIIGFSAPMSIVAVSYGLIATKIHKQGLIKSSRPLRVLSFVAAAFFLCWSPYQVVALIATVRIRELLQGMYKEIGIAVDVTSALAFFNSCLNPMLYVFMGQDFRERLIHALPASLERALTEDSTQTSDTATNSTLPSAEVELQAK

[12] = cytotoxicity in HPDE-C7 cells, cell-based, fluorescence, HTS (AID 430); assay type: functional; settings: Homo sapiens
[13] = cytotoxicity in KRAS-transformed pancreatic duct cells, primary screen, cell-based, fluorescence, HTS (AID 431); assay type: functional; settings: Homo sapiens;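 further: cell line used: HPDE-C7K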
[14] = molecular target: Eukaryotic translation initiation factor 4E (Mus musculus, UniProt P63073); test: eIF4E–eIF4G protein interaction inhibitors, dose response, biochemical, TR-FRET (AID 855); assay type: functional;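 further: potency for disrupting eIF4E binding to eIF4GI seen as loss of FRET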
Sequence of Eukaryotic translation initiation factor 4E (P63073 whole entry): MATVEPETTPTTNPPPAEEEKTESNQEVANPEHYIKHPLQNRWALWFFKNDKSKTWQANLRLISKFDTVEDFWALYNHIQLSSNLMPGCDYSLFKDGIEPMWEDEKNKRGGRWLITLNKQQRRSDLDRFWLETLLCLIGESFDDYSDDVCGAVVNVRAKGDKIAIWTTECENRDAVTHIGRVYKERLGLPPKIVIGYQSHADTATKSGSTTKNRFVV

[15] = molecular target: T2, Replicative DNA helicase DnaB (Mycobacterium tuberculosis, UniProt P9WMR3); test: DnaB intein splicing inhibitors, dose response, biochemical, cell-free fluorescence (AID 449749); assay type: functional
T2 sequence (P9WMR3 whole entry): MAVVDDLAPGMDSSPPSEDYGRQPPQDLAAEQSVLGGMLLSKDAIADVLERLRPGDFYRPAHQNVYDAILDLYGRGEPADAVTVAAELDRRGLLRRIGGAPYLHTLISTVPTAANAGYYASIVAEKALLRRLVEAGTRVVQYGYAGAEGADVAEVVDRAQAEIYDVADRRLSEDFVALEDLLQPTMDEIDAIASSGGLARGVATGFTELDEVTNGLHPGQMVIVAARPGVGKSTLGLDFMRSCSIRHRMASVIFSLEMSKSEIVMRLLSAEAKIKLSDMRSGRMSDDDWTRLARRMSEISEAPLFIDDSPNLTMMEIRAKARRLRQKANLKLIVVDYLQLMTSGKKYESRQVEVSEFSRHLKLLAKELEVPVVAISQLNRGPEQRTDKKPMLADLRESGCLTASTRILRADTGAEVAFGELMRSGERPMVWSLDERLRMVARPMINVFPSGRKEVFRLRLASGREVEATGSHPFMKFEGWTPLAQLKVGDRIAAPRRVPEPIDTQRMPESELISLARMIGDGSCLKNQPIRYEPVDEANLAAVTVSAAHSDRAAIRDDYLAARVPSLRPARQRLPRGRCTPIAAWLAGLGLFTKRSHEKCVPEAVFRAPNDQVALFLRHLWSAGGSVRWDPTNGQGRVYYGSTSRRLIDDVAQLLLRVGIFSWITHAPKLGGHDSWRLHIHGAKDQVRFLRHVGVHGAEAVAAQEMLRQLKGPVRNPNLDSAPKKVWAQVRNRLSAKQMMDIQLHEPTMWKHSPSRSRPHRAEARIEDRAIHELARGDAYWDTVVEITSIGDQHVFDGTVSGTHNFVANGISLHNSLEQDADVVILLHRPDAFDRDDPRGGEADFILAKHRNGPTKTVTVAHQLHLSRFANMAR

[16] = molecular target: T3, Protein RecA (Mycobacterium tuberculosis, UniProt P9WHJ3); test: Fluorescence Cell-Free Homogeneous Dose Retest to Identify Inhibitors of RecA-Intein Splicing Activity. [Related pubchem assays (depositor defined):AID2097, AID2223, AID489010, AID492950]; assay type: functional
T3 sequence (P9WHJ3 whole entry): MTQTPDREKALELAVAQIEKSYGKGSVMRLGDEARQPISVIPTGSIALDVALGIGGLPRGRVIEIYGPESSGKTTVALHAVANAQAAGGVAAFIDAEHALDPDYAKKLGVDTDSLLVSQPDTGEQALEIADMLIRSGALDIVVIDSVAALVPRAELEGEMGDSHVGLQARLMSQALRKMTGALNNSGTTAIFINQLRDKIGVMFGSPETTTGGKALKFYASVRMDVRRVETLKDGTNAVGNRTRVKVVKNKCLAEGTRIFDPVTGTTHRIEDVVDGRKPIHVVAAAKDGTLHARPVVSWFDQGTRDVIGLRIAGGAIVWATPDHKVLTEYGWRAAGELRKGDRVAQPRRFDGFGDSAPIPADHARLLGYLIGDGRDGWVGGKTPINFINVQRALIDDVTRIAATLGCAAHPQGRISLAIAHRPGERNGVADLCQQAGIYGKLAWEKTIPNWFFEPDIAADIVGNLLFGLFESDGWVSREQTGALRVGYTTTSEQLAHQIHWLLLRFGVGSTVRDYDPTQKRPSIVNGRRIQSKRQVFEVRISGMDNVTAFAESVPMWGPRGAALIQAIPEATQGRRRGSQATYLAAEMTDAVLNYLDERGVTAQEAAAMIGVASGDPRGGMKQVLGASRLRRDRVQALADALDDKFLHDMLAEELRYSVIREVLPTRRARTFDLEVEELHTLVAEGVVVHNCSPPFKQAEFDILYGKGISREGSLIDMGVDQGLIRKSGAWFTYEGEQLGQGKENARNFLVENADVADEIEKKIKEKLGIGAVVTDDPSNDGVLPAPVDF

[17] = molecular target: Cytochrome P450 2D6 (Homo sapiens, UniProt P10635)
Sequence of Cytochrome P450 2D6 (P10635 whole entry): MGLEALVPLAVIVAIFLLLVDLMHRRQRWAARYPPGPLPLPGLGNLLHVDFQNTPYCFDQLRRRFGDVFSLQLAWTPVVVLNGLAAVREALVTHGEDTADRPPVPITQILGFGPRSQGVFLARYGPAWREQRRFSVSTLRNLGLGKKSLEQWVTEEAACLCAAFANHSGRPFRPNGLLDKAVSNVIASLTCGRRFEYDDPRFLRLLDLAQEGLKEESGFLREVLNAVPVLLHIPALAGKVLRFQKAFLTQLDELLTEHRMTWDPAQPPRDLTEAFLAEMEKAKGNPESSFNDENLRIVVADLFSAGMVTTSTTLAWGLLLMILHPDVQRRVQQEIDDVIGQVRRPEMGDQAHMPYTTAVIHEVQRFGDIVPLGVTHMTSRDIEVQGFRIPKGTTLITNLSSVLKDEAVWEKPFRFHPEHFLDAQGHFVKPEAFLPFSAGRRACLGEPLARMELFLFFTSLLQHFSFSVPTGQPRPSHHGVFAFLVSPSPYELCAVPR

[18] = molecular target: T4, Cytochrome P450 1A2 (Homo sapiens, UniProt P05177);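 further: PubChem cytochrome P450 panel assay, CYP1A2 panel member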
T4 sequence (P05177 whole entry): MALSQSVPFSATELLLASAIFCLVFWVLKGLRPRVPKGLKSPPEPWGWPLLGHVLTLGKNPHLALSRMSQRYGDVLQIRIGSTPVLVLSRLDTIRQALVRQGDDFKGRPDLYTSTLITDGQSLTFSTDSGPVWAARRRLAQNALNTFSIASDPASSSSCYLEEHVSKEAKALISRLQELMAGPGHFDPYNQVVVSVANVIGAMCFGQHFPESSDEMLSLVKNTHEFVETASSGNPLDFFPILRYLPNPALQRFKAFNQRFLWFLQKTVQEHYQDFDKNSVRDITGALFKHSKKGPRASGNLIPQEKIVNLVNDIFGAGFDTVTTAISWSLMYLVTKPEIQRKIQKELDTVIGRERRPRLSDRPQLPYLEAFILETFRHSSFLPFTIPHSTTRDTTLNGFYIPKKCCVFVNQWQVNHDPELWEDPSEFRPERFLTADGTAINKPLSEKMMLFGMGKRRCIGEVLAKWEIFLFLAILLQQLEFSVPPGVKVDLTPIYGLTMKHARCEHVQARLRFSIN

[19] = molecular target: Paired box protein Pax-8 (Homo sapiens, UniProt Q06710); test: inhibitors of PAX8-driven TPO luciferase reporter, dose response, RMG-I cells, cherry-pick (AID 687027); assay type: functional, cell-based;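 further: luciferase reporter driven by Pax8 target thyroperoxidase promoter measured by SteadyGlo luminescence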
Sequence of Paired box protein Pax-8 (Q06710 whole entry): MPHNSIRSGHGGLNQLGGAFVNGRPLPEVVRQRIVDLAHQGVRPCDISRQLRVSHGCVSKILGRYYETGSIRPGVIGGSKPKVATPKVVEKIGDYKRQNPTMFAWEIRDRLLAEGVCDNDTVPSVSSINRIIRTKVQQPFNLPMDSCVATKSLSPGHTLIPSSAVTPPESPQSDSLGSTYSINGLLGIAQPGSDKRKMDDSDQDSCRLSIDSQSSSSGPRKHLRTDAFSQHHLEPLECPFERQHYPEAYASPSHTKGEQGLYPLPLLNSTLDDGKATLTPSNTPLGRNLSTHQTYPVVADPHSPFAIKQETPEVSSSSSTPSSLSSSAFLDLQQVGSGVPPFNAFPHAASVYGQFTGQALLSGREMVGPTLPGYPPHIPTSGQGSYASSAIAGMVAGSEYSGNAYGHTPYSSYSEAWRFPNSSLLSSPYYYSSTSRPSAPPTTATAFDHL

[20] = cytotoxicity in OVCAR8 ovarian cancer cells, dose response, PAX8 project, cell-based, plate reader, dry powder samples (AID 743197); assay type: functional; settings: OVCAR-8
[21] = molecular target: T5, Rac GTPase-activating protein 1 (Homo sapiens, UniProt Q9H0H5); test: MgcRacGAP GTPase-activating activity inhibitors, confirmation, biochemical, ADP Hunter fluorescence, primary and confirmatory (AID 624330); assay type: functional
T5 sequence (Q9H0H5 whole entry): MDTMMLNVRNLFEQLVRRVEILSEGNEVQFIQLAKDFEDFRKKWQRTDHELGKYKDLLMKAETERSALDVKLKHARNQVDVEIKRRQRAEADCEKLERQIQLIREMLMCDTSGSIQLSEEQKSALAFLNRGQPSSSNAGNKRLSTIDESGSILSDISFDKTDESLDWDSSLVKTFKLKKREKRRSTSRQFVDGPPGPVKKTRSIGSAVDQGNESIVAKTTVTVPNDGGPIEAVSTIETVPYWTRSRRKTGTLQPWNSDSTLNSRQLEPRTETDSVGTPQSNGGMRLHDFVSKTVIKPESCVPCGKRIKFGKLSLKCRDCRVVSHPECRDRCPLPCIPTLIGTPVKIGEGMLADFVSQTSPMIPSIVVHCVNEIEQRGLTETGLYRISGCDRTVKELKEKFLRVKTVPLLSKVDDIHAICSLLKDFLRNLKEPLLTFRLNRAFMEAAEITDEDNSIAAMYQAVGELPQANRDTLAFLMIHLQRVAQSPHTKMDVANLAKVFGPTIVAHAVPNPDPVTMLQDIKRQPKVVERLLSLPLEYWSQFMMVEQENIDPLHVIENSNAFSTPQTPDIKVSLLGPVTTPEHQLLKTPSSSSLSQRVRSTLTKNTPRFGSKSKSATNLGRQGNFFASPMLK

CCOc1ccc2nc(N3CCC(C(=O)NC4CCCCC4)CC3)sc2c1
CC50 [1]: > 40 µM (active)

O=C(c1ccccc1)N1CCN(c2ccc([N+](=O)[O-])c(NCC3CCCO3)c2)CC1 (stereo not drawn)
AC50 [2]: 105 µM (active) | AC50 [3]: 40.2 µM (active)

CCC(C)N1CCC2(CC1)N=c1c3c(O)c4c(O)c(C)c5c(c4c1=N2)C(=O)[C@@](C)(OC=C[C@H](OC)[C@@H](C)[C@@H](OC(C)=O)[C@H](C)[C@H](O)[C@H](C)[C@@H](O)[C@@H](C)C=CC=C(C)C(=O)N3)O5 (stereo partly drawn)
AC50 [3]: 7.88 µM (active)

Clc1ccc(-c2csc3ncnc(N4CCc5ccccc5C4)c23)cc1
CC50 [1]: > 40 µM (active)

CC(C)c1ccc(S(=O)(=O)N2CCN(CCC(=O)Nc3ccc(N(C)C)cc3)CC2)cc1
IC50 [4]: 15.1 µM (active)

O=C1CC(c2ccc(S(=O)(=O)NCCOc3ccccc3)cc2)CN1 (stereo not drawn)
IC50 [5]: > 50 µM (not active)

Cc1ccc(Cn2c(C(CO)Nc3nc(-c4ccc(Cl)c([N+](=O)[O-])c4)cs3)nc3ccccc32)cc1 (stereo not drawn)
CC50 [1]: 37.3 µM (active)

CC(C)(C)c1nnc(NC(=O)NS(=O)(=O)c2ccccc2)s1
AC50 [6]: 39.8 µM (inconclusive) | AC50 [7]: 10 µM (inconclusive) | AC50 [3]: 61.5 µM (active)

Cc1cc(=O)oc2c(N)c(O)ccc12
IC50 [4]: 0.77 µM (active) | AC50 [8]: 1.32 µM (active)

O=C(NC1CC1)C1CCN(C2CCN(C(=O)Cc3ccc(F)cc3)CC2)CC1
AC50 [2]: 26.8 µM (active) | AC50 [3]: 50 µM (active)

CCOC(=O)c1sc(N(Cc2ccccc2)C(=O)COC(=O)c2ccc(O)cc2)nc1C
EC50 [9]: > 350 µM (not active) | EC50 [10]: 175 µM (active)

O=C(Cn1c(=O)oc2ccccc21)N1CCN(c2ccccc2)CC1
Ki [11]: > 66.7 µM (inactive)

O=C(C1=C(O)C(=O)N(CCN2CCOCC2)C1c1ccccc1)c1cccs1 (stereo not drawn)
Ki [11]: > 66.7 µM (inactive)

Cc1cccn2c(=O)c3cc(C(=O)N4CCC5(CC4)OCCO5)n(C)c3nc12
EC50 [12]: 4.7 µM (active) | EC50 [13]: 8.42 µM (active)

O=C1C(C23CC4CC(CC(C4)C2)C3)C(=O)N(c2ccccc2)N1c1ccccc1
Ki [11]: 11.5 µM (active)

CCN(CC)C1=CC(=O)OC12CCCCC2
IC50 [5]: > 50 µM (not active)

O=C1CCCC(O)=C1C(C#Cc1ccccc1)C1=C(O)CCCC1=O
IC50 [14]: > 64 µM (inactive) | AC50 [15]: 6.78 µM (active) | EC50 [16]: > 380 µM (inconclusive) | Ki [11]: > 66.7 µM (inactive)

COc1ccccc1CNC(=O)c1cc2c(C)nn(Cc3ccc(F)cc3)c2s1
CC50 [1]: > 40 µM (active) | AC50 [17]: 22.4 µM (inconclusive) | AC50 [18]: 31.6 µM (inconclusive)

COc1ccc(OC)c(C(=O)c2nc3c(n2O)CCCCC3)c1
Ki [11]: 49.6 µM (inactive)

COc1ccccc1NC(=O)c1cc2ccccc2o/c1=N\O
EC50 [12]: > 20 µM (not active) | EC50 [13]: > 20 µM (not active)

COc1ccc(CN(C)C[C@@H]2OCCCC[C@@H](C)Oc3ccc(NC(=O)Nc4ccc(C(F)(F)F)cc4)cc3C(=O)N([C@@H](C)CO)C[C@H]2C)cc1
AC50 [19]: 8.11 µM (active) | AC50 [20]: > 70 µM (inactive)

O=S(=O)(c1ccccc1)N1CCCCN2[C@H](CO)[C@H](c3ccc(-c4ccccc4F)cc3)[C@H]2C1
AC50 [19]: 33.7 µM (active) | AC50 [20]: > 70 µM (inactive)

COc1cc(/C=N/NC(=S)NCCN2CCOCC2)ccc1O
IC50 [4]: 6.95 µM (active) | IC50 [21]: 19.9 µM (active)

COc1ccccc1/C=C/C(=O)NCC(=O)N/N=C/c1cc(Br)ccc1OC
CC50 [1]: 27.5 µM (active)

Cc1ccc(/C=N\NC(=O)COc2ccc(C)cc2[N+](=O)[O-])cc1
IC50 [4]: > 100 µM (active)

O=C(Nc1ccc(CN2CCOCC2)cc1)c1ccc(-c2ccc(Br)cc2)o1
EC50 [12]: 13.9 µM (active) | EC50 [13]: 9.91 µM (active)
